# Source: US20200384001A1, “COMPOSITION FOR PREVENTION OR TREATMENT OF NEUROINFLAMMATORY DISEASE, CONTAINING PROTEIN TYROSINE PHOSPHATASE” (KYUNGPOOK NATIONAL UNIVERSITY INDUSTRY - ACADEMIC …, priority 2015, published 2020)
# Columns and labels:
# BV2 microglia [1] = assay: LPS-induced NO production in BV2 microglial cell line (Griess reaction); format: cell-based; details: for LPS-induced NO production: BV2, Src kinase inhibitor PP2 (5 μM) or PDTC (FIG. 18)
# Procedure: Since the production of NO (nitric oxide) is a strong marker of inflammatory response in microglia, the effect of PTP1B on LPS-induced NO production was investigated through the Griess reaction. The production of NO was measured using the amount of nitrite. Naive microglia or microglia overexpressing PTP1B were treated with LPS (originated from E. coli 055: B5; Sigma). FIG. 6 illustrates the result of treatment with a BV2 microglial cell line at the indicated dose of LPS. FIG. 7 illustrates the results of treating a BV2 microglial cell line with 100 ng LPS at the indicated time. 24 hours after incubation, 5 μl the cell culture media was mixed with Griess reagent with the same volume (0.1% naphthylethylenediamine dihydrochloride and 1% sulfanylamine in 5% phosphoric acid) in a 96-well microtiter plate. Absorbance was read at 540 nm and sodium nitrite was used for standard curve generation.
# In addition, the level of LPS-induced NO production after BV2 treatment with Src kinase inhibitor PP2 (5 μM) or PDTC (Ammonium pyrrolidinedithiocarbamate, NFκB inhibitor) was identified to determine whether Src is associated with LPS-induced microglia activity. This is illustrated in FIG. 18.
# Next, it was determined whether the PTP1B-mediated proinflammatory response was dependent on Src activity in microglia. […] NO levels were measured in the treated BV2 microglia and the results are illustrated in FIG. 19.
# [2] = system: microglia (Iba-1 positive cells); assay: Iba-1 positive activated microglia in brain of LPS-injected mice (brain inflammation model); format: in vivo, mouse; details: inhibitor intracerebrally, LPS 5 mg/kg i.p., 48 hours
# Procedure: C57BL/6 mice were injected intracerebrally with vehicle (saline solution containing 0.5% DMSO and 5% propylene glycol) or the PTP inhibitor of Table 2 above (dilution in saline solution containing 5% propylene glycol). LPS (5 mg/kg) was intraperitoneally injected 30 minutes after injection. Mice were sacrificed and the brain was analyzed 48 hours after LPS injection.
# The mouse model was divided into eight experimental groups; Group 1 treated with saline solution and 0.5% DMSO; Group 2 treated with LPS and 0.5% DMSO; Group 3 treated with LPS and PTP1B inhibitor; Group 4 treated with LPS and TC-PTP inhibitor; Group 5 treated with LPS and SHP2 inhibitor; Group 6 treated with LPS and MEG2 inhibitor; Group 7 treated with LPS and LYP inhibitor; and Group 8 treated with LPS and RPTPP inhibitor. The experimental design above is illustrated in FIG. 4A.
# FIG. 4B illustrates the histochemical results of confirming whether the sacrificed mouse brain is morphologically changed by straining the antibody against Iba-1, a marker of microglia.
# In addition, the brains were removed and sectioned, and the hippocampus, cortex and thalamus were stained with an antibody against Iba-1. The results of histochemical confirmation are illustrated in FIG. 4C. The results of graphical representation of the number of Iba-1 positive cells per mm^2 are illustrated in FIG. 4D.
# HAPI cells [3] = assay: TNFα-induced NO production in HAPI rat microglial cell line; format: cell-based; details: 10 μM iPTP1B 1 hour, TNFα 100 ng/ml 24 hours (FIG. 12)
# From the text: NO levels were identified in the stimulated cells.
# HAPI cells [4] = assay: LPS-induced NO production in HAPI rat microglial cell line; format: cell-based; details: 10 μM iPTP1B 1 hour, LPS 100 ng/ml 24 hours (FIG. 11)
# From the text: NO levels were confirmed in the stimulated rat microglial cell line, HAPI cells.
# Src = assay: Phosphorylation of Src at Y527 in brain of LPS-injected inflammatory mouse model; format: in vivo; details: LPS+iPTP1B or iPTP1B injected into the brain, after 24 hours (FIG. 20)
# Procedure: In addition, in vivo experiments were carried out using an inflammatory mouse model injected with LPS to identify the effect of PTP1B on phosphorylation of Src at Y527 in vivo. […] At this time, total Src and beta-actin were used as a loading control group and Lnc2 was used as a marker of neuroinflammation. The results are illustrated in FIG. 20.
# BV2 microglia [5] = assay: TNFα protein ELISA in BV2 microglial culture media; format: cell-based; details: BV2, LPS, 24-hour incubation, ELISA (FIG. 15)
# Procedure: In addition, the level of TNFα protein in the BV2 microglial culture media treated with LPS as described above was confirmed by ELISA. […] After 24-hour incubation, the TNFα levels in the culture media were measured using a rat monoclonal anti-mouse TNFα antibody as the capture antibody and a goat biotinylated polyclonal anti-mouse TNFα antibody as the detection antibody. The measured levels of TNFα protein results are illustrated in FIG. 15.
# brain tissues = assay: Real-time PCR of TNFα and IL1β expression in brain tissue after LPS and iPTP1B injection; format: in vivo, mouse; details: real-time PCR 6 hours after injection of LPS (FIG. 23)
# Procedure: The expression level of TNFα and IL1β genes, which are proinflammatory factors, was measured by real-time PCR 6 hours after the injection of LPS, and the results are illustrated in FIG. 23.
# primary microglia = assay: LPS-induced NO production in mouse primary microglia; format: cell-based; details: 5 μM iPTP1B, LPS 50 ng/ml 24 hours (FIG. 10)
# From the text: NO levels were confirmed in the stimulated primary microglia.
# BV2 microglia [6] = assay: RT-PCR of LPS-induced proinflammatory molecule mRNA in BV2 microglia; format: cell-based; details: BV2, LPS 100 ng/ml 6 hours, RT-PCR (FIGS. 13, 14)
# From the text: The results are illustrated in FIG. 13.
# PTP1B = target: T1, PTP1B (Homo sapiens, UniProt P18031); details: statement without data; inhibitor obtained from Dr. Zhang group; cited from earlier work
# T1 sequence (P18031 1-435): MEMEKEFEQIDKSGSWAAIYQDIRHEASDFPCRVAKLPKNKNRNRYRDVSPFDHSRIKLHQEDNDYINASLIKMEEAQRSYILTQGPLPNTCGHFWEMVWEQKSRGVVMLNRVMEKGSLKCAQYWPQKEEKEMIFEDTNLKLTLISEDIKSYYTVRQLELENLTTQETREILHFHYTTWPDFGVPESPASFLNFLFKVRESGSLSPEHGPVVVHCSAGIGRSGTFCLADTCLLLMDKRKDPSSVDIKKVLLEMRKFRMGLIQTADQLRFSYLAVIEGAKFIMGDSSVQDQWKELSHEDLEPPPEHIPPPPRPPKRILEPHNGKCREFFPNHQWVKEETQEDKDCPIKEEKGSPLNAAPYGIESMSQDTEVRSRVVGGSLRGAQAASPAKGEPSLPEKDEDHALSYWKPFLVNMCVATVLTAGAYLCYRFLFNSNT
compound,measurement,setting,value
CC(C)(C)n1nc(-c2ccc(Cl)cc2)c2c(N)ncnc21 [PP2],dose dependence of inhibition of LPS-induced NO production,"BV2 microglia [1]; BV2, PP2 pretreatment (FIG. 18)",dose-dependent
same,LPS-induced NO production,BV2 microglia [1],inhibited significantly
same,NO levels: effect on the anti-inflammatory effect of iPTP1B,"BV2 microglia [1]; BV2 pretreated with PP2 or iPTP1B 1 hour, LPS 24 hours (FIG. 19)",eliminated the anti-inflammatory effect of iPTP1B
"N.S=C(S)N1CCCC1 [PDTC, Ammonium pyrrolidinedithiocarbamate]",LPS-induced NO production,BV2 microglia [1],inhibited significantly
"Cn1c(-c2cccc(NC(=O)CNC(=O)c3cc(Br)cc(I)c3)c2)c(I)c2cc(C(=O)O)c(O)cc21 [RPTPβ inhibitor, 2-(3-(2-(3-bromo-5-iodobenzamido)acetamido)phenyl)-6-hydroxy-3-iodo-1-methyl-1H-indole-5-carboxylic acid]",activation of LPS-induced microglia (Iba-1 positive cells) in the cortex,[2],decrease the activation of LPS-induced microglia
same,activation of LPS-induced microglia (Iba-1 positive cells) in the hippocampus,[2],decrease the activation of LPS-induced microglia
CCc1ccc(C(=O)NCCCC[C@H](NC(=O)[C@H](Cc2ccc(C(F)(F)P(=O)(O)O)cc2)NC(=O)[C@H](Cc2ccccc2)NC(=O)CO[C@@H]2C[C@@H](C)CC[C@@H]2C(C)C)C(N)=O)cc1 [TC-PTP inhibitor],activation of LPS-induced microglia (Iba-1 positive cells) in the cortex,[2],decrease the activation of LPS-induced microglia
((4-((S)-3-(((S)-1-amino-3-(2-(4-hydroxy-3-methoxyphenyl)acetamido)-1-oxopropan-2-yl)amino)-5-(3-iodobenzamido)-1-oxopentan-2-yl)amino)-6-hydroxy-3-iodo-1-methyl-2-(3-(2-oxo-2-((4-thiophen-3-yl)phenyl)amino)acetamido)phenyl)-1H-indole-5-carboxlic acid [SHP2 inhibitor],activation of LPS-induced microglia (Iba-1 positive cells) in the hippocampus,[2],decrease the activation of LPS-induced microglia
(S)-4-(((S)-1-(12-azanyl)-3-(4-(difluoro(phosphono)methyl)phenyl)-1-oxopropan-2-yl)amino)-3-((S)-3-(4-(difluoro(phosphono)methyl)phenyl)-2-pentadecanamidopropanamido)-4-oxobutanoic acid [iPTP1B],level of LPS-induced NO,"BV2 microglia [1]; BV2, different concentrations of iPTP1B, LPS 100 ng/ml (FIG. 9)",dose-dependently decreased
same,"NO production, treatment with inhibitor alone (basic level)","BV2 microglia [1]; BV2, iPTP1B alone without LPS",did not inhibit or increase NO production
same,IC50,"BV2 microglia [1]; BV2, pretreated 1 hour, LPS 100 ng/ml, Griess method (FIG. 9), read-out: IC50 for level of LPS-induced NO",10.3 µM
same,TNFα-induced NO level,HAPI cells [3],significantly decreased
same,level of LPS-induced NO,HAPI cells [4],significantly decreased
same,phosphorylation of Src at Y527 in vivo,Src,increased phosphorylation of Src at Y527
same,expression level of TNFα protein in the culture media,BV2 microglia [5],significantly low
same,expression of IL1β gene in brain,brain tissues,significantly weakened
same,expression of TNFα gene in brain,brain tissues,significantly weakened
same,activation of LPS-induced microglia (Iba-1 positive cells) in the cortex,[2],decrease the activation of LPS-induced microglia
same,activation of LPS-induced microglia (Iba-1 positive cells) in the hippocampus,[2],decrease the activation of LPS-induced microglia
same,level of LPS-induced NO,primary microglia,significantly decreased
same,LPS-induced IL1β mRNA expression,BV2 microglia [6]; 10 M iPTP1B,significantly inhibits
same,LPS-induced TNFα mRNA expression,BV2 microglia [6]; 10 M iPTP1B,significantly inhibits
same,LPS-induced iNOS mRNA expression,BV2 microglia [6]; 10 M iPTP1B,significantly inhibits
same,LPS-induced Cox2 mRNA expression,BV2 microglia [6]; iPTP1B,significantly inhibits
same,specificity for PTP1B,PTP1B,highly specific to PTP1B
